This is an account of results in US20110251238A1, “PPAR AGONIST COMPOSITIONS AND METHODS OF USE” (BIOPHARMED, priority 2008, published 2011).

Values after ≈ are worked out from the molar mass of the structure shown.

One may read the IC50 as the point on the concentration scale where inhibition reaches its midpoint. In general, GI50 refers to the concentration that inhibits growth by half. A word on the MIC: it is the smallest concentration in the dilution series that meets the test's criterion for growth inhibition.

One experiment deals with caspases 9. The experiment is described as follows: Caspases 9 activation in HL60 cells (LEHD reagent). The experiment is classed as cell-based, human. The conditions noted are these: 48 hours, 1 μM, 0.1 μM and 0.01 μM. The text has this:
(§1) 7223, using standard commercially available diagnostic kits (Calbiochem, USA). Assay reagents used were DEVD for caspases 3/7, […] for caspases 8, and LEHD for caspases 9. Moreover, colchicine was used as reference compound that induces this activity of caspases.

Another experiment has as its system KaKa. In words: Growth inhibition, MTT colorimetric assay, KaKa. The experiment is classed as cell-based. Particulars: 72 h; 3 days with drug; means of six values; unit inferred; read-out: IC50 KaKa. In short, it runs like this: (§2)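 Reported IC50 values average six determinations, with standard error under 5% relative to the mean. Inhibition was scored by MTT after a 3-day culture with the drugs.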
In general terms: Tetrazolium dyes change colour on reduction, which living cells bring about.

The next experiment relates to U138 MG (human glioma). In words: Growth inhibition, MTT colorimetric assay, U138. It is filed as cell-based. Particulars: Homo sapiens, U138-MG, 72 h; glioma; 3 days with drug; means of six values; unit inferred; read-out: IC50 U138. Summed up: (§3)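 3-day continuous drug exposure; MTT readout; IC50 = mean of 6 values, SE <5% of mean.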
In a further experiment the test system is caspases 8. The experiment is described as follows: Caspases 8 activation in HL60 cells (IEDT reagent). The experiment is classed as cell-based, human. Particulars: 48 hours, 1 μM, 0.1 μM and 0.01 μM.
Excerpt: as §1

Experiment [1] has as its system KB3 (epitheloid lung cancer) cell lines. The experiment is described as follows: Cell growth inhibition (cytotoxicity), MTS assay, KB3 cell line. It is filed as cell-based. The conditions noted are these: KB3; Table 3A; MTS assay, triplicate; read-out: KB3 IC50. Here is the method: Cell growth inhibition was determined by the MTS assay; the number of viable cells were proportional to the extent of formazan production in the presence or absence of drugs. […]

Experiment [2] relates to HT-22, an immortalized mouse hippocampal cell line. The experiment is described as follows: Neuroprotection of HT-22 cells against toxic insults (calcein viability assay). The experiment is classed as cell-based. Here is the method:
It is known (P. Aoun, 2003 Eur. J. Pharm. 472:65-71) that Peroxisome proliferator-activated receptors (PPARs) are involved in regulating many metabolic and inflammatory processes. The present invention explores the role of PPAR ligands in protecting neuronal cultures from toxic insults. For that purpose, the new PPAR agonists described in Example 1 were screened for their potential role as neuroprotective compounds. Experiments were performed using HT-22, an immortalized mouse hippocampal cell line, and SK-N-SH, a human neuroblastoma cell line. HT-22 was selected because it expresses PPARγ receptors. Cell viability against glutamate, hydrogen peroxide (H2O2), and serum deprivation insults was determined using a calcein assay. […] Additionally, compounds were protective even when administered simultaneously with glutamate, or for up to 8 h postglutamate insult.
HT-22, an immortalized mouse hippocampal cell line, and SK-N-SH, a human neuroblastoma cell line, were used. HT-22 cells were obtained from David Schubert (Salk Institute, San Diego, Calif.). The HT-22 line was originally selected from HT-4 cells based on glutamate sensitivity. SK-N-SH cells were obtained from ATCC (Manassas, Va.). HT-22 and SK-N-SH cells were grown to confluency in Dulbecco's modified essential medium (DMEM) and RPMI-1640 media, respectively, and supplemented with 10% charcoal/dextran-treated fetal bovine serum (FBS) and […] gentamicin at 37° C. under 95% air/5% CO2. HT-22 cells were plated at a density of 50,000 cells/ml (5000 cells/well), and SK-N-SH cells were plated at a density of 120,000-150,000 cells/ml (12,000-15,000 cells/well) in 96-well plates. In most studies, wells were pretreated with PPAR ligands over a wide dose range at various times prior to being subjected to either glutamate, hydrogen peroxide, or serum deprivation insults. In some studies, the insults were applied prior to the addition of the PPAR ligand.
The following analogues were tested on the HT22 cell line for their neuroprotective effect against glutamate insult and for their anti-inflammatory activity on relevant, models including HT22 cell line.

A further experiment has as its system B16-F10 (mouse melanoma). In words: Growth inhibition, MTT colorimetric assay, B16F10. It is filed as cell-based. The conditions noted are these: Mus musculus, B16-F10, 72 h; melanoma; 3 days with drug; means of six values; unit inferred; read-out: IC50 B16F10. In short, it runs like this:
as §3

Experiment [3] deals with U373 (human glioblastoma-astrocytoma). In words: Growth inhibition, MTT colorimetric assay, U373. The experiment is classed as cell-based. The conditions noted are these: Homo sapiens, U373 MG, 72 h; glioma; 3 days with drug; means of six values; unit inferred; read-out: IC50 U373. Summed up:
as §3

In the next experiment the test system is GL19. In words: Growth inhibition, MTT colorimetric assay, GL19. The experiment is classed as cell-based. The conditions noted are these: GL19, 72 h; 3 days with drug; means of six values; unit inferred; read-out: IC50 GL19. In short, it runs like this:
as §2

Another experiment has as its system Host. In words: Growth inhibition, MTT colorimetric assay, Host. Particulars: 72 h; 3 days with drug; means of six values; unit inferred; read-out: IC50 Host. The experiment is classed as cell-based. In short, it runs like this: as §2
The subject of the next experiment is RhTP (rhabdomyosarcoma). In words: Growth inhibition, MTT colorimetric assay, RhTp. The experiment is classed as cell-based. Particulars: 72 h; 3 days with drug; means of six values; unit inferred; read-out: IC50 RhTp. Summed up:
as §2

The next experiment has as its system SKMEL28 (human melanoma). In words: Growth inhibition, MTT colorimetric assay, SKMEL-28. The experiment is classed as cell-based. Particulars: Homo sapiens, SK-MEL-28, 72 h; melanoma; 3 days with drug; means of six values; unit inferred; read-out: IC50 SKMEL-28. Summed up: as §2
The test system of experiment [4] is bloodstream forms of T. brucei and T. congolense. The experiment is described as follows: Trypanocidal activity in vitro, Alamar Blue assay. The conditions noted are these: 48 h total incubation. It is filed as cell-based, Trypanosoma brucei and T. congolense. Summed up: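 Bloodstream-form trypanosomes exposed to compounds in H2O for 24 h, then Alamar Blue added for a further 24 h (48 h total). Absorbance read at 550 nm with 630 nm reference; duplicate wells, three repeats. HL-60 cytotoxicity run alongside: 43 h plus 5 h dye.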
On the technique in general: Resazurin is reduced to fluorescent resorufin, in cell work by metabolically active cells.

The test system of a further experiment is caspases 3/7. In words: Caspases 3/7 activation in HL60 cells (DEVD reagent). It is filed as cell-based, human. Particulars: 48 hours.
Excerpt: as §1

Experiment [5] relates to bloodstream forms of T. congolense STIB910. The conditions noted are these: T. congolense STIB910, identical experimental conditions, Merschjohann et al. (2001); cited from earlier work.
Experiment [6] deals with bloodstream forms of T. brucei 427-221a. Particulars: identical experimental conditions, Merschjohann et al. (2001); cited from earlier work.

For `Cc1ccc(CN(Cc2ccc(O)c3ncccc23)Cc2ccc(O)c3ncccc23)cc1` [BPM19,107, 5,5′-(4-(methyl)benzylazanediyl)bis(methylene)diquinolin-8-ol], in the experiment with caspases 9, the “activation of caspases 9” value is on record as “no effect”. The IC50 in the experiment on KaKa amounted to 710 nM; in the experiment with U138 MG (human glioma), 81 nM; in experiment [1] it was 3 nM; in the experiment on B16-F10 (mouse melanoma), 88 nM; in experiment [3], 96 nM; in the experiment on GL19 it was 1030 nM. The IC50 worked out at 2460 nM in the experiment with Host, 84 nM in the experiment on RhTP (rhabdomyosarcoma) and 4780 nM in the experiment on SKMEL28 (human melanoma). The “activation of caspases 8” value with caspases 8 was “no effect”. Moreover, the “neuroprotection from H2O2 insult” value in [2] is reported as “dose-dependent neuroprotection”. Also, the “neuroprotection from glutamate insult” value in experiment [2] is reported as “dose-dependent neuroprotection”. In addition, the GI50 in experiment [4] (50% growth inhibition, read-out: GI50) is 310 ± 10 nM. For the same compound, the MIC in experiment [4] (lowest concentration at which all cells were killed, read-out: MIC) is 1 µM (≈ 0.436 µg/mL). Also, the figures for the “activation of caspases 3/7” value in the experiment with caspases 3/7 (0.01 μM), in the experiment with caspases 3/7 (0.1 μM) and in the experiment on caspases 3/7 (1 μM) were “neither BPM18,708 nor BPM19,107 has an effect”, “strong effect” and “strong effect”, respectively.
Consider `N=C(N)c1ccc(N=NNc2ccc(C(=N)N)cc2)cc1` [diminazene aceturate], for which, in experiment [5], the IC50 was 500 nM.
For `Cc1ccc(C(=O)Nc2ccc(S(=O)(=O)O)c3cc(S(=O)(=O)O)cc(S(=O)(=O)O)c23)cc1NC(=O)c1cccc(NC(=O)Nc2cccc(C(=O)Nc3cc(C(=O)Nc4ccc(S(=O)(=O)O)c5cc(S(=O)(=O)O)cc(S(=O)(=O)O)c45)ccc3C)c2)c1` [suramin], the IC50 in experiment [6] is 400 nM.
